Experimental data as given in patent US11780821B2, “Inhibitors of fibroblast activation protein” (Praxis Biotech LLC, priority 2017, dated 2023).
Where two headings read alike, the source gives them in different places.

Experiments:
Format in all cases: biochemical
[1] = molecular target: T1, recombinant mouse DPPIV (rmDPPIV) (Mus musculus, UniProt P28843); assay: DPPIV enzymatic activity assay; settings: H-Gly-Pro-pNA substrate
T1 construct: purchased R&S system (so in the source)

[2] = molecular target: T2, recombinant human FAPα (rhFAPα) (Homo sapiens, UniProt Q12884); assay: FAPα enzymatic exopeptidase (dipeptidase) activity assay; settings: for IC50: exopeptidase, read-out: rhFAPα (exo IC50)
T2 construct: purchased R&S system (so in the source)
T2 sequence (Q12884 1-760): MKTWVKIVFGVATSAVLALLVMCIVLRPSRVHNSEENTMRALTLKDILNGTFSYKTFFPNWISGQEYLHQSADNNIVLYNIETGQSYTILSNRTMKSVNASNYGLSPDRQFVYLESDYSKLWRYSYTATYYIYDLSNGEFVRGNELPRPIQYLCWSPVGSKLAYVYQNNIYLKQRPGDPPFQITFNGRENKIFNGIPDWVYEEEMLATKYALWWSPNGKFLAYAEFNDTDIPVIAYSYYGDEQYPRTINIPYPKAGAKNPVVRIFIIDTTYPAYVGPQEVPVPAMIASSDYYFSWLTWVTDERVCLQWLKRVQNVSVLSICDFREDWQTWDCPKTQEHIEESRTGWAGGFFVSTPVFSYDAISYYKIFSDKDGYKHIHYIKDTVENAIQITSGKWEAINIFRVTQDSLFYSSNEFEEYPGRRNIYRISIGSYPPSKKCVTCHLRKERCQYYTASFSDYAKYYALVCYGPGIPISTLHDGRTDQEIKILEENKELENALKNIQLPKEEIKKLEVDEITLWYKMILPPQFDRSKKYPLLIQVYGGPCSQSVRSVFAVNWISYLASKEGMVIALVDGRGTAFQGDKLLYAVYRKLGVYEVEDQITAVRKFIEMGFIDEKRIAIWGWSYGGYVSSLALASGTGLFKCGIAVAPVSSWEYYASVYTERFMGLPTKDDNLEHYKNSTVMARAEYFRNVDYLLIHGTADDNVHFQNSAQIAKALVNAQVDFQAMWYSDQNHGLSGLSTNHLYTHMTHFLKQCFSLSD

[3] = molecular target: T3, recombinant mouse PREP (rmPREP) (Mus musculus, UniProt Q9QUR6); assay: PREP enzymatic activity assay; settings: Z-Gly-Pro-AMC substrate
T3 construct: purchased R&S system (so in the source)
Protocol: (§1) 7-Amino-4-Methylcoumarin (AMC) release was detected by measuring fluorescence at Ex/Em 380/460 nm using a Multifunction Microplate Reader (Synergy 4, Biotek). All measurements were carried out in triplicate.

[4] = molecular target: T4, recombinant human DPPIV (rhDPPIV) (Homo sapiens, UniProt P27487); assay: DPPIV enzymatic activity assay; settings: H-Gly-Pro-pNA substrate
T4 construct: purchased R&S system (so in the source)

[5] = molecular target: T5, recombinant mouse FAPα (rmFAPα) (Mus musculus, UniProt P97321); assay: FAPα enzymatic exopeptidase (dipeptidase) activity assay; settings: for IC50: exopeptidase, read-out: rmFAPα (exo IC50)
T5 construct: purchased R&S system (so in the source)
T5 sequence (P97321 1-761): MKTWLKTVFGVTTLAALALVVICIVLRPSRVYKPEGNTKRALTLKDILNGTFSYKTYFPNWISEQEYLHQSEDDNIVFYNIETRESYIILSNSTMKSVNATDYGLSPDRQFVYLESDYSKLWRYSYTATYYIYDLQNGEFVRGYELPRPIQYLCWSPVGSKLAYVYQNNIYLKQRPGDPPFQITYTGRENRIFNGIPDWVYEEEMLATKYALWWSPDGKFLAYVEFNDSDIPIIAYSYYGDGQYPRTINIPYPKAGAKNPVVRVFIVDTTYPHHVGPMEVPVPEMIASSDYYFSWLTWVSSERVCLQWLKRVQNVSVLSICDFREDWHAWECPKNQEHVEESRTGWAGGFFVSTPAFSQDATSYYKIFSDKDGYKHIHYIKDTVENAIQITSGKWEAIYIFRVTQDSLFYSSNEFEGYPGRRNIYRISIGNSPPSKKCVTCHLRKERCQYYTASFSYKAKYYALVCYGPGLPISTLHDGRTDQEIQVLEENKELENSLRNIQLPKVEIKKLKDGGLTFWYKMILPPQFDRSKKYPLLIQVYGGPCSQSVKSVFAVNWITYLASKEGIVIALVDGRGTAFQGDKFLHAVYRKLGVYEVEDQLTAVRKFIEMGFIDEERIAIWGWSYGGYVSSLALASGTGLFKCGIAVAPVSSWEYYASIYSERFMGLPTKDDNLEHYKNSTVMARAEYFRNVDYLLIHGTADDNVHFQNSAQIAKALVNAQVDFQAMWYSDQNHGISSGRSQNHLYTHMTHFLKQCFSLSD

[6] = molecular target: T5, recombinant mouse FAPα (rmFAPα); assay: as above; settings: 1 μM test compound; Z-Gly-Pro-AMC substrate; read-out: rmFAPα (% exo inh @ 1 μM)
Protocol: FAPα enzymatic exopeptidase (dipeptidase) activity assay. […] 7-Amino-4-Methylcoumarin (AMC) release was detected by measuring fluorescence at Ex/Em 380/460 nm using a Multifunction Microplate Reader (Synergy 4, Biotek). All measurements were carried out in duplicate. […] For the calculations, the average measurements from reactions containing only vehicle and substrate, without enzyme, were used as a blank and were subtracted from the rest of the measurements. Percent inhibition was calculated using the average measurements from reactions containing vehicle, enzyme, and substrate as the maximum of enzymatic activity. Measurements were performed as a single point.

[7] = molecular target: T6, recombinant human PREP (rhPREP) (Homo sapiens, UniProt P48147); assay: PREP enzymatic activity assay; settings: Z-Gly-Pro-AMC substrate
T6 sequence (P48147 1-710): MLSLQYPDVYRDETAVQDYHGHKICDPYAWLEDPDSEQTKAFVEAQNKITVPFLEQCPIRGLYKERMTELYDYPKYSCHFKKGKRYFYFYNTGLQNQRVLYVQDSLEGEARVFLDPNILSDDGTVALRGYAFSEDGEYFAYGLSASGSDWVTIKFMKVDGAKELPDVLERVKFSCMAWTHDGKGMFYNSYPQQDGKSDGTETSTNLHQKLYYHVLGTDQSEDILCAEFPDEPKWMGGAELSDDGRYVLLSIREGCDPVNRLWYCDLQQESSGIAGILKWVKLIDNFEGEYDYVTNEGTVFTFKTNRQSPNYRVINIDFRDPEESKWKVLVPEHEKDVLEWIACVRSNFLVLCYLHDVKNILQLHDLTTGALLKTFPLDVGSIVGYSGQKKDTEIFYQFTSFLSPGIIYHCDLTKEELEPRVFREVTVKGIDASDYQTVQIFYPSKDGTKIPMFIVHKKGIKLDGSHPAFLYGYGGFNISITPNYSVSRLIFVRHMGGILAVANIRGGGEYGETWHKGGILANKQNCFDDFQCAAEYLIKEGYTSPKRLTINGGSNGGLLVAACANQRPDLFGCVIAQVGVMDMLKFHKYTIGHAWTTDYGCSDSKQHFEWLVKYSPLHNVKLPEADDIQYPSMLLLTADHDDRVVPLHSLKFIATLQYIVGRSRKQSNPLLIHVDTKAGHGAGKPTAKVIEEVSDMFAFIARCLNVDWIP
Protocol: as §1

[8] = molecular target: T7, recombinant human DPP9 (rhDPP9) (Homo sapiens, UniProt Q86TI2); assay: DPP9 enzymatic activity assay; settings: H-Gly-Pro-AMC substrate
T7 construct: purchased R&S system (so in the source)
Protocol: as §1

T1 sequence (P28843 whole entry): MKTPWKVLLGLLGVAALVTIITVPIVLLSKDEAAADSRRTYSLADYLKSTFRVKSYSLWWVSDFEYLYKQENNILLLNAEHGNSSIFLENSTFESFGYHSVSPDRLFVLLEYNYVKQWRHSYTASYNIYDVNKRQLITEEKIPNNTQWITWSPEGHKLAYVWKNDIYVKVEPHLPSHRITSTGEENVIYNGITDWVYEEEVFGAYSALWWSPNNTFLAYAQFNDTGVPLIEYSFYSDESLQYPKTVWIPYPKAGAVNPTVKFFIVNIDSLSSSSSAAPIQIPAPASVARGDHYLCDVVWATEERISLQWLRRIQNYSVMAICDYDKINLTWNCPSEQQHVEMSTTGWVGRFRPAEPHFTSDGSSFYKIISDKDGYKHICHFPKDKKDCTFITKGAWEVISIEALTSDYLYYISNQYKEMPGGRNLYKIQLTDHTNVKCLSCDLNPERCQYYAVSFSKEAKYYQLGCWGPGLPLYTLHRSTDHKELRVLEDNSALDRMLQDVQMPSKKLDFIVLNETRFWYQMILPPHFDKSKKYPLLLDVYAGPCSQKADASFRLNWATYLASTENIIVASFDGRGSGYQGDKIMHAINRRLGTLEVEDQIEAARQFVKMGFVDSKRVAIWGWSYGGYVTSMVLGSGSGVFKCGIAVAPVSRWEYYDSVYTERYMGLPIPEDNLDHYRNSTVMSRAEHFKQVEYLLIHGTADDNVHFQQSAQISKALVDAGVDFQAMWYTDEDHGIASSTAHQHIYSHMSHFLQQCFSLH
T3 sequence (Q9QUR6 whole entry): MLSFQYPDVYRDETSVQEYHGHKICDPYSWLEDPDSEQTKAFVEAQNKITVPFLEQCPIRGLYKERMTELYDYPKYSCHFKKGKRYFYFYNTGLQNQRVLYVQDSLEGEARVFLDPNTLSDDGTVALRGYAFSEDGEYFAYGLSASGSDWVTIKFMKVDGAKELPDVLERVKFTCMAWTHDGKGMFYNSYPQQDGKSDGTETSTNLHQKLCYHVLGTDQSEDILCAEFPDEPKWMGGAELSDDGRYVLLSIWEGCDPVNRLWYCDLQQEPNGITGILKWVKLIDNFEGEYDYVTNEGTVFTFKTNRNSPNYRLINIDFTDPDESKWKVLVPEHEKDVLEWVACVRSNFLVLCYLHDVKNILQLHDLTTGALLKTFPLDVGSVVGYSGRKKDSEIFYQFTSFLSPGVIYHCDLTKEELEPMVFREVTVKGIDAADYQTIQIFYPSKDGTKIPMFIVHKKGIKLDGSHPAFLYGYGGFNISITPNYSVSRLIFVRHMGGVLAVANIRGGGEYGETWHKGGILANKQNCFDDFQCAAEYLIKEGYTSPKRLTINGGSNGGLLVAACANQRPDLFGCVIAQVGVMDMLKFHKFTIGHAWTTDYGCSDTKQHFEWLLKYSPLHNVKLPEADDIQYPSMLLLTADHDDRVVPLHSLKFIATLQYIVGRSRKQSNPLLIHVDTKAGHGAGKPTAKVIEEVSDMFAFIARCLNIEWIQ
T4 sequence (P27487 whole entry): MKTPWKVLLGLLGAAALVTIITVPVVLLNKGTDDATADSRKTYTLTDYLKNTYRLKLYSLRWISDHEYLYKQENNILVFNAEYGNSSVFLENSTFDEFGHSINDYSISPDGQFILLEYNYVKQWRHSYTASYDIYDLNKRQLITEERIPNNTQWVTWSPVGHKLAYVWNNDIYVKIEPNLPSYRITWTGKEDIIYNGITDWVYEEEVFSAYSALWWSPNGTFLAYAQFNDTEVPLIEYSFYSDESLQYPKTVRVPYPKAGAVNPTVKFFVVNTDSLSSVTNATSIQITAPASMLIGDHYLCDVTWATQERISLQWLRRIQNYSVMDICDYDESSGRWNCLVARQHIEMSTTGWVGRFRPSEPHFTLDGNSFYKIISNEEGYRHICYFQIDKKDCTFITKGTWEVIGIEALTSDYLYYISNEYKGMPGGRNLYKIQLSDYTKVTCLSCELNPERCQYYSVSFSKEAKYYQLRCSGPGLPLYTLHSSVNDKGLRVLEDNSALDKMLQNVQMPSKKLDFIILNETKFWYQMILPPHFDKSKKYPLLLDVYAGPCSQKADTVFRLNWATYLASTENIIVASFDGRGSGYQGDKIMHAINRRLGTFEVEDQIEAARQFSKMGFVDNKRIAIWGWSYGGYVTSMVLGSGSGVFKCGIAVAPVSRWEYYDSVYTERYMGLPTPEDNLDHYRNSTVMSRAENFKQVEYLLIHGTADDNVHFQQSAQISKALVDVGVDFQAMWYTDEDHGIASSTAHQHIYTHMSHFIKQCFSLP
T7 sequence (Q86TI2 whole entry): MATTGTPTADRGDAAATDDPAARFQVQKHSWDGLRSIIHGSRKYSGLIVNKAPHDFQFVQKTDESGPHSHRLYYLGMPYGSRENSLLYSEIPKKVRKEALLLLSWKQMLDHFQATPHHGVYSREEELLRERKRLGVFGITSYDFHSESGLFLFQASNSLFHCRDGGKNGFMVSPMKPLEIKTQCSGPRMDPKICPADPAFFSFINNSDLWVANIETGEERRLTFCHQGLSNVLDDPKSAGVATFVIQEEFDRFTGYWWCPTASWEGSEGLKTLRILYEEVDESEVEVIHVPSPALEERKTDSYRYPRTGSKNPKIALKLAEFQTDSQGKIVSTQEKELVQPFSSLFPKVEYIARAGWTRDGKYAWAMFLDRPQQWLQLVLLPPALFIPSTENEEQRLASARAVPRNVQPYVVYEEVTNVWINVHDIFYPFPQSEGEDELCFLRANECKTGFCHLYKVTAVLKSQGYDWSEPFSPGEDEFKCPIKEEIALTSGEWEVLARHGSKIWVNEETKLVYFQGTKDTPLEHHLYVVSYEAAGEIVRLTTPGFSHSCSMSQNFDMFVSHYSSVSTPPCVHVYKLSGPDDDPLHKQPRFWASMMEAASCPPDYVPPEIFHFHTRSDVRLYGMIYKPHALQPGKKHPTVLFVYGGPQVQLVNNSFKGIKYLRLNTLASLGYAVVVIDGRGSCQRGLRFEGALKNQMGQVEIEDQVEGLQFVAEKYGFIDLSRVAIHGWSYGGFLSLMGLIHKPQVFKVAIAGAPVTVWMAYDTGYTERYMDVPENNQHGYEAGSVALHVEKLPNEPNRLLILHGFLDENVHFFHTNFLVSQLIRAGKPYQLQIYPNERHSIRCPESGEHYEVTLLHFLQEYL

Row | Structure (SMILES) | IC50 [1] [nM] | IC50 ([2]; Table 2, Z-Gly-Pro-AMC) [nM] | IC50 ([2]; Table 3) [nM] | inhibition at 1 µM ([2]; read-out: rhFAPα (% exo inh @ 1 μM)) [%] | IC50 [3] [nM] | IC50 ([5]; Table 2, Z-Gly-Pro-AMC) [nM] | IC50 ([5]; Table 3) [nM] | inhibition at 1 µM [6] [%] | IC50 [7] [nM] | IC50 [8] [nM] | IC50 [4] [nM] | inhibition at 1 µM ([5]; read-out: rmFAPα (% exo inh @ 1 μM)) [%]
1 | Cn1cc(C(=O)NCC(=O)N2CC(F)(F)C[C@H]2C#N)ccc1=O [Compound 16, (S)—N-(2-(2-cyano-4,4-difluoropyrrolidin-1-yl)-2-oxoethyl)-1-methyl-6-oxo-1,6-dihydropyridine-3-carboxamide] | > 10000 | < 1000 | < 1000 | > 50 | > 10000 |  |  |  |  |  |  | 
2 | N#C[C@@H]1CC(F)(F)CN1C(=O)CNC(=O)c1ccc(=O)[nH]c1 [Example 6, (S)—N-(2-(2-cyano-4,4-difluoropyrrolidin-1-yl)-2-oxoethyl)-6-oxo-1,6-dihydropyridine-3-carboxamide] | > 10000 | < 1000 |  |  |  | < 1000 | < 1000 |  |  |  | > 10000 | > 50
3 | N#C[C@@H]1CC(F)(F)CN1C(=O)CNC(=O)c1ccc2nc(O)ccc2c1 [Compound 10, (S)—N-(2-(2-cyano-4,4-difluoropyrrolidin-1-yl)-2-oxoethyl)-2-hydroxyquinoline-6-carboxamide] |  |  |  |  |  |  |  | 25 to 50 |  |  |  | 
4 | N#C[C@@H]1CC(F)(F)CN1C(=O)CNC(=O)c1cn(C2CC2)c(=O)c2ccccc12 [Example 3, (S)—N-(2-(2-cyano-4,4-difluoropyrrolidin-1-yl)-2-oxoethyl)-2-cyclopropyl-1-oxo-1,2-dihydroisoquinoline-4-carboxamide] |  |  |  |  |  |  |  | 25 to 50 |  |  |  | 

Now from value to compound, other results behind:

Row | IC50 [1] [nM] | IC50 ([2]; Table 2, Z-Gly-Pro-AMC) [nM] | IC50 ([2]; Table 3) [nM] | inhibition at 1 µM ([2]; read-out: rhFAPα (% exo inh @ 1 μM)) [%] | IC50 [3] [nM] | IC50 ([5]; Table 2, Z-Gly-Pro-AMC) [nM] | IC50 ([5]; Table 3) [nM] | inhibition at 1 µM [6] [%] | IC50 [7] [nM] | IC50 [8] [nM] | Structure (SMILES) | IC50 [4] [nM] | inhibition at 1 µM ([5]; read-out: rmFAPα (% exo inh @ 1 μM)) [%]
5 | 1000 to 10000 | < 1000 |  |  | > 10000 | < 1000 | < 1000 | > 50 | > 10000 |  | N#C[C@@H]1CC(F)(F)CN1C(=O)CNC(=O)c1ccc2ncccc2c1 [Example 4, (S)—N-(2-(2-cyano-4,4-difluoropyrrolidin-1-yl)-2-oxoethyl)quinoline-6-carboxamide] | > 10000 | 
6 | > 10000 | < 1000 | < 1000 |  | < 1000 | < 1000 | < 1000 | > 50 |  | > 10000 | Cn1cc(C(=O)NCC(=O)N2CC(F)(F)C[C@H]2C#N)c2ccccc2c1=O [Example 9, (S)—N-(2-(2-cyano-4,4-difluoropyrrolidin-1-yl)-2-oxoethyl)-2-methyl-1-oxo-1,2-dihydroisoquinoline-4-carboxamide] |  | 
7 |  |  |  |  |  |  |  | < 25 |  |  | N#C[C@@H]1CC(F)(F)CN1C(=O)CNC(=O)c1ncnc2c1CCC2 [Example 5, (S)—N-(2-(2-cyano-4,4-difluoropyrrolidin-1-yl)-2-oxoethyl)-6,7-dihydro-5H-cyclopenta[d]pyrimidine-4-carboxamide] |  | 
